Assay: Hydrophilic drug release from drug-containing IPN hydrogel in sustained-release solution (HPLC, 272 nm)
Assay type: physicochemical
Settings: from release curve FIG. 4; drug-loaded IPN hydrogel; sampling 30 minutes to 72 hours
Protocol: The drug-containing hydrogel was placed in a sustained-release solution for drug release testing and taking the samples from sustained-release solution within a fixed time.
Taking the samples with fixed time and test releasing concentration. The sampling time is 30 minutes, 60 minutes, 90 minutes, 180 minutes, 8 hours, 24 hours, 48 hours, and 72 hours.
The subsequent drug concentration was analyzed by high performance liquid chromatography (HPLC). The water-based drug used caffeine for drug release, and the absorption wavelength of caffeine was 272 nm for measurement.

Cn1c(=O)c2c(ncn2C)n(C)c1=O [caffeine]
release amount of caffeine in water: ≥ 40%

Source: US20210130549A1, “IPN hydrogel for preparation and application” (EASTING BIOTECHNOLOGY COMPANY LIMITED, priority 2019, published 2021)
